System: MDA-MB-231 cells
Assay: Modified transwell migration assay
Format: cell-based, human
Conditions: EGF 100 ng/mL in bottom chamber, 8 hours
Excerpt: In addition to the MBDM assay, the modified transwell migration assay (Ahirwar D K, et al. (2015) Sci Rep 5:11005.) was used to determine the effects of standalone iEF treatment on number of cells migrated to complement the speed and persistence data obtained from the MBDM assay. iEF treatment alone had no significant effect (neither stimulatory nor inhibitory) on the total number of MDA-MB-231 cells that spontaneously migrated across the transwell membrane (˜10 μm thick) compared to the untreated control (FIG. 8). These outcomes occurred for both anti-parallel and parallel directions of iEF application.
Transwell permeable supports that have 6.5 mm diameter inserts of polycarbonate membrane with 8 μm diameter pore size (Corning, CLS3422) were used in the experiments reported here. […] Cell migration numbers were then quantified using a custom MATLAB script as described in Image Acquisition and Processing. […]
Images from experiments with the transwell migration assays were taken using a stereo microscope (Leica Microsystems Inc.) after fixation and staining of the cells using the HEMA 3 solution kit (Fisher Scientific). […] The images were then imported into MATLAB and analyzed using a custom code (MATLAB script). […] The average area of a cell was determined from the mean of manual measurements of approximately 20 isolated cells for each case. […]

## epidermal growth factor [EGF]
  transmigration compared to untreated controls: significantly promoted

From patent publication US12306176B2, “Microfluidic bi-directional migration assay” (Ohio State Innovation Foundation, priority 2017, dated 2025)
